Laboratory results reported in patent publication US20250177392A1, “BROAD SPECTRUM INHIBITORS OF CYTOMEGALOVIRUS” (MICROBIOTIX, INC., priority 2022, published 2025).

How the values were obtained:
NHDF cells = experiment: CellTiter Glo ATP luciferase assay; assay type: cell-based, human; conditions: human, 6 days
Description: Fibroblasts were treated with increasing concentrations of MBX-4992 and MBXC-4336 for up to 6 days and cell number was measured periodically using Hoechst stain to quantify cell proliferation (A and B). Cyclohexamide (CHX) and DMSO (−) were used as positive and negative controls for cytotoxicity respectively. Cell cytostaticity (C and D) was assessed using ATP-based CellTiter Glo luciferase assay following extended incubation with increasing concentrations of MBX-4992 and MBXC-4336 for 1 or 6 days. Relative light units (RLU) were measured following cell lysis and normalized to DMSO treated cells for each time point.
The CellTiter Glo Luminescent Assay (Promega Inc, Madison, WI) was performed according to the manufacturer's instruction. NHDF cells (10^4) were plated in a 96-well plate overnight and treated with MBX-4992 or MXC-4336 ([…]) in triplicate for up to 6 days. Cyclohexamide (50 μg/mL) was used as a control. CellTiter Glo substrate was added in a 1:1 ratio with media and CellTiter-Glo reagent followed by the analysis of luciferase activity (relative light units, RLU) using a BioTek Synergy H1 microplate reader. In parallel, an identical plate was labelled with Hoescht reagent (25 μg/mL) to quantify the cell number using a Celigo Cytometer.
Next, the cytostaticity and cytotoxicity of treatment with MBX-4992 and MBXC-4336 was analyzed. […]

[1] = test system: CMV strains AD169^R and TB40/E; experiment: CMV infection assay, strains AD169^R and TB40/E together; assay type: cell-based, Human cytomegalovirus
HSV-1 E-377 = experiment: Herpes virus panel neutralization, HSV-1; assay type: cell-based, Herpes simplex virus 1
Description: (§1) To determine the specificity of MBX-4992, additional neutralization experiments were conducted using a panel of herpes viruses performed in the presence of MBX-4992. […] Collectively, the antiviral activity of MBX-4992 is equivalent to that of GCV indicating specific inhibition of CMV replication.

HCMV AD169 = experiment: Herpes virus panel neutralization, HCMV AD169; assay type: cell-based, Human cytomegalovirus
Description: as §1

HCMV GDGr K17 (GCV^R) = experiment: Herpes virus panel neutralization, GCV-resistant HCMV; assay type: cell-based, Human cytomegalovirus
Description: as §1

VZV Ellen = experiment: Herpes virus panel neutralization, VZV; assay type: cell-based, Varicella-Zoster virus
Description: as §1

AD169^R = experiment: Virus pre-incubation / washout study; assay type: cell-based, Human cytomegalovirus; conditions: virus pre-incubated, compound washed out; MBX-4992 10 μM, heparin 50 μg/ml
Description: (B) Based on the schematic, AD169^R (MOI 0.2) was pre-incubated with DMSO, MBX-4992, or heparin for one hour before being added to NHDF cells. Virus/compound mix was washed out after 30 minutes as indicated and either unchanged or replaced with media containing DMSO, MBX-4992, or heparin. Virus infection was quantified at 24 hpi GFP fluorescence. Percent infection was normalized to untreated cells.
NHDF cells (10^4) plated overnight in a 96-well plate were incubated at 4° C. for 30 minutes with AD169^R CMV virus pretreated with MBX-4992 (10 μM), Heparin (50 μg/mL) or DMSO for 1 hour at room temperature (in triplicate). For 2/3rd of the samples, media was aspirated and half of the wells received DMSO media, regardless of which drug the virus was exposed to, or MBX-4992 (10 μM), or Heparin (50 μg/mL) overnight. At 18 hpi, the cells were fixed with 4% paraformaldehyde, stained with a rabbit anti-IE1 antibody followed by an anti-rabbit Alexa 647, and analyzed using the Celigo cytometer. The DMSO condition that was not aspirated post binding was set as 100% infection.
To further characterize the mechanism of action, pre-incubation/washout studies were performed using AD169^R and MBX-4992. […] At 18 hpi, cells were immunostained with an anti-IE1 antibody as a readout for infection and quantified using a Celigo cytometer. […]

TB40/E = experiment: Plaque assay, MBX-4992 and ganciclovir alone and in combination; assay type: cell-based, Human cytomegalovirus; conditions: ARPE-19 and NHDF cells, 10 dpi; MBX-4992 1-20 μM, ganciclovir 2.5 μM
Description: At 10 day post-infection, representative whole well images of plaques >10,000 μm^2 (A and B) were quantified based on GFP fluorescence intensity and calculated relative to DMSO controls (C and D). Statistical tests were performed using ordinary one-way ANOVA with multiple comparisons to DMSO treated cells as a control and a Dunnett's post-test. *, p<0.05; **, p<0.01; ***, p<0.001; ****, p<0.0001.
At 10 days post-infection, representative whole well images of plaques >10,000 μm^2 (A and B) were quantified based on GFP fluorescence intensity and calculated relative to DMSO controls (C and D).

SMILES	decrease of luciferase activity (NHDF cells) [%]	infection of trophoblasts ([1]; HRT8svNEO trophoblasts, 24 hpi, IE1 immunostain)	IC50 ([1]; Human betaherpesvirus 5, AD169, read-out: IC50 values ranging) [nM]	SI (HSV-1 E-377)	IC50 (HSV-1 E-377; Human alphaherpesvirus 1) [nM]	SI (HCMV AD169; HCMV AD169)	IC50 (HCMV AD169; Human betaherpesvirus 5, AD169) [nM]	SI (HCMV GDGr K17 (GCV^R); HCMV GDGr K17 (GCV^R))	IC50 (HCMV GDGr K17 (GCV^R); Human betaherpesvirus 5) [nM]	SI (VZV Ellen)	IC50 (VZV Ellen; Human alphaherpesvirus 3) [nM]	decrease of infection after washing out (AD169^R) [%]	viral plaques >10,000 μm^2, single drug (TB40/E)
Cc1nc(Nc2cccc(NC(=O)c3ccco3)c2)cc(N2CCCCC2)n1 [MBXC-4336]	10												
Cc1nc(Nc2ccc(NC(=O)c3ccco3)cc2)cc(N2CCCC2)n1 [MBX-4992]		limited infection	1900 to 4800	<2	> 30000	>88	1700	>83	1800	<5	> 30000	~25	decreased
